Data: patent US4636569A, “Pharmaceutical compositions containing compounds with a flavanone skeleton, process for the preparation of the said compound and novel compounds obtained” (Inverni Della Beffa S.p.A., priority 1983, dated 1987)
Counter-ions that a name gives are not always drawn.

Columns and labels:
[1] = test system: bile flow and excretion of cholate; experiment: Choleretic activity in rats; type: in vivo; details: dose 200 (unit not given); for Bile flow: n=10, controls 2.72 ± 0.11, ** P < 0.01, *** P < 0.001; for Total cholate: n=10, controls 11.64 ± 0.19, ** P < 0.01
From the text: The choleretic activity, compared to that of catechol, has been determined in rats by measuring both the bile flow and the excretion of cholate (cholic acid).

[2] = Acute toxicity in mice (oral route); type: in vivo; details: mouse, in vivo
From the text: (§1) ACUTE TOXICITY (LD50 in mice (oral route)

[3] = test system: colouring matter excreted in the bronchial liquid; experiment: Expectorant activity in mice (Nawatarih fluorescein method); type: in vivo; details: for ED50: Mus musculus, mice, oral, read-out: ED50 (dose capable of incrementing the excretion of the colouring matter by 50%)
Procedure: The expectorant activity of the compounds of the invention was evaluated by the method of Nawatarih (Kagoshima Daigaku Igaku Zasshi 27, 561, 1976) with fluorescein, according to which the increment of colouring matter excreted in the bronchial liquid is determined experimentally in mice. In the experiments the activity of 6,8-dimethyl-5,7,3',4'-tetrahydroxyflavanone was evaluated in comparison with that of bromhexine hydrochloride as reference standard. The results, given in Table 1, are expressed in ED50 (dose capable of incrementing the excretion of the colouring matter by 50%).

mice = experiment: Acute toxicity in mice (oral route); type: in vivo; details: no deaths occurred at a dose rate of 3000 mg/kg
From the text: as §1

amount of expectoration = experiment: Expectorant activity in the rabbit (Perry and Boyd method); type: in vivo; details: Oryctolagus cuniculus, po
Procedure: The expectorant activity has also been monitored by the Perry and Boyd method (J. Pharmacol. Exp. Ther. 7 580, 1941), in which the direct amount of expectoration is determined in the rabbit.

[4] = test system: olive oil induced hyperlipaemia; experiment: Hypolipaemic activity in rats (olive oil induced hyperlipaemia); type: in vivo; details: for Triglycerides / NEFA: n=6, m ± ES; for Triglycerides: controls 252 ± 18; for NEFA: controls 1017 ± 39
Procedure: The hypolipaemia-producing activity was evaluated in other tests in which the variations in cholesterol, triglycerides, NEFA (non-esterified fatty acids) and various lipoprotein fractions were determined.
In Table 3 there is reported the effect of 6,8-dimethyl-5,7,4'-trihydroxyflavanone and of nicotinic acid in combatting olive oil induced hyperlipaemia in rats fasted for 16 hours. The substances under test were administered orally two hours before the lipid load and the hyperlipaemia was induced by administering orally 20 ml/kg of olive oil.
Sacrifice took place three hours after the administration of the oil.

[5] = known flavanones of extractive origin; cited from earlier work

Oc1ccccc1O [(+) Catechol, catechol]
Bile flow [1]: 4.13 ± 0.4 ml/4 h
Total cholate [1]: 13.03 ± 0.35 mg/4 h

CN(Cc1cc(Br)cc(Br)c1N)C1CCCCC1 [Bromhexine HCl, bromhexine hydrochloride]
LD50 [2]: 2140 mg/kg
ED50 [3]: 51 mg/kg

Cc1c(O)c(C)c2c(c1O)C(=O)CC(c1ccc(O)c(O)c1)O2 (stereo not shown) [6,8-dimethyl-5,7,3',4'-tetrahydroxyflavanone]
LD0 (mice): 3000 mg/kg
ED50 [3]: 78 mg/kg
therapeutic index ([3]; vs bromhexine, from ED50 and acute oral toxicity in mice): distinctly more favourable than that of bromhexine
ED50 (amount of expectoration): 200 mg/kg

Cc1c(O)c(C)c2c(c1O)C(=O)CC(c1ccc(O)cc1)O2 (stereo not shown) [6,8-Dimethyl-5,7,4'-trihydroxyflavanone, 6,8-dimethyl-5,7,4'-trihydroxyflavanone]
Bile flow [1]: 5.25 ± 0.18 ml/4 h
Total cholate [1]: 15.23 ± 0.97 mg/4 h
Triglycerides ([4]; 50 mg/kg os): 198 ± 7 mg/100 ml
NEFA ([4]; 50 mg/kg os): 702 ± 23 uEq/1
NEFA, change (in parentheses) ([4]; 50 mg/kg os, vs controls): -31

O=C(O)c1cccnc1 [Nicotinic acid, nicotinic acid]
Triglycerides ([4]; 173 mg/kg os): 71 ± 6 mg/100 ml
NEFA ([4]; 173 mg/kg os): 709 ± 33 uEq/1
NEFA, change (in parentheses) ([4]; 173 mg/kg os, vs controls): -30
Triglycerides, change (in parentheses) ([4]; 173 mg/kg os, vs controls): -72

Cc1c(O)c(C)c2c(c1O)C(=O)C[C@@H](c1ccc(O)cc1)O2 [farrerol]
expectorant and mucolytic activity [5]: display expectorant and mucolytic activity

O=C1C[C@@H](c2ccc(O)c(O)c2)Oc2cc(O)cc(O)c21 [eriodictyol]
expectorant and mucolytic activity [5]: display expectorant and mucolytic activity
